Data published in patent US6452005B1, “JAK-3 inhibitors for treating allergic disorders” (Parker Hughes Institute, priority 1999, dated 2002).

Columns and labels:
LYN = target: T1, LYN (Homo sapiens, UniProt P07948); assay: Immune complex kinase assay, LYN from NALM-6 cells; type: biochemical; settings: concentrations as high as 350 μM
T1 construct: LYN was immunoprecipitated from whole cell lysates of NALM-6 human leukemia cells; endogenous in cells; host or cells: NALM-6 human B-lineage ALL cells

human JAK3 = target: T2, human JAK3 (Homo sapiens, UniProt P52333); assay: Immune complex kinase assay, JAK3 immunoprecipitated from KL2 EBV-transformed lymphoblastoid B cell line; type: biochemical; settings: JAK3 immunoprecipitated from KL2 cells
T2 construct: KL-2 EBV-transformed human lymphoblastoid B cells (native JAK3 kinase assays); endogenous in cells; host or cells: KL-2 EBV-transformed human lymphoblastoid B cell line
T2 sequence (P52333 1-1124): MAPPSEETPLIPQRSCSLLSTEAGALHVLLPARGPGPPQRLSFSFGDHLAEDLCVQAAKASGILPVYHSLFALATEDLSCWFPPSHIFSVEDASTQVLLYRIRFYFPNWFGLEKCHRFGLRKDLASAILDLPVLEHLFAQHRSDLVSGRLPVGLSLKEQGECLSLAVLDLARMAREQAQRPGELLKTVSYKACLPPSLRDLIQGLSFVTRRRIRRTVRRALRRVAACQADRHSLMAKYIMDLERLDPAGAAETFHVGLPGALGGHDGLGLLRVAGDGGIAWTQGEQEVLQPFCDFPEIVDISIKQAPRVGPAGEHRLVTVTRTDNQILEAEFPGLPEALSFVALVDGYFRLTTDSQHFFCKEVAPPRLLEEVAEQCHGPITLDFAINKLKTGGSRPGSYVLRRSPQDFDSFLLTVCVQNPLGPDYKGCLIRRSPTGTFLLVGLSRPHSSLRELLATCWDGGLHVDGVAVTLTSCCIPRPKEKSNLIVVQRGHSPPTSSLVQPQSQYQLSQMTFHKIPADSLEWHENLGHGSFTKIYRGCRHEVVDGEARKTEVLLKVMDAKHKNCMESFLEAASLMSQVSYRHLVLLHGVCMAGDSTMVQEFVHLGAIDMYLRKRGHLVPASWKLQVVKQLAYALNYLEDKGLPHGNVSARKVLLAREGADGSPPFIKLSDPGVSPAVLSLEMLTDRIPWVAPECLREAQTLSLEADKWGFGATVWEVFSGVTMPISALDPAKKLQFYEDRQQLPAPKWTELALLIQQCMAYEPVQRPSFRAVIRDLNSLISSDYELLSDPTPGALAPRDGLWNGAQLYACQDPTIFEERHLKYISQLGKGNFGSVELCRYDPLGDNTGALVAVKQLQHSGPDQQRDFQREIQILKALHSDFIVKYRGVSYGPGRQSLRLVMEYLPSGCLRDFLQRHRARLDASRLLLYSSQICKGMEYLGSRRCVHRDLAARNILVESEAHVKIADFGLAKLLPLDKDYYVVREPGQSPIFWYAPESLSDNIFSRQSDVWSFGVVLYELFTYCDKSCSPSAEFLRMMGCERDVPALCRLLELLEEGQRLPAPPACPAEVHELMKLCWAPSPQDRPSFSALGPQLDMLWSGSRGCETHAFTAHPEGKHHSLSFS
Procedure: KL-2 EBV-transformed human lymphoblastoid B cells (native JAK3 kinase assays) or insect ovary cells (recombinant JAK3 kinase assays) were lysed with NP-40 lysis buffer (50 mM Tris, pH 8, 150 mM NaCl, 5 mM EDTA, 1% NP-40, 100 μM sodium orthovanadate, 100 μM sodium molybdate, 8 μg/ml aprotinin, 5 μg/ml leupeptin, and 500 μM PMSF) and centrifuged 10 minutes at 13000×g to remove insoluble material. Samples were immunoprecipitated with antisera prepared against JAK3. The antisera were diluted and immune complexes collected by incubation with 15 μl protein A Sepharose. After 4 washes with NP-40 lysis buffer, the protein A Sepharose beads were washed once in kinase buffer (20 mM MOPS, pH 7.0, 10 mM MgCl2) and resuspended in the same buffer. Reactions were initiated by the addition of 25 μCi γ[^32P] ATP (5000 Ci/mMole) and unlabeled ATP to a final concentration of 5 μM. Reactions were terminated by boiling for 4 min in SDS sample buffer. Samples were run on 9.5% SDS polyacrylamide gels and labeled proteins will be detected by autoradiography. […] For each drug concentration, a kinase activity index (KA) was determined by comparing the kinase activity in phosphorimager units (PIU) to that of the baseline sample. […]

BALB/c mice = assay: Toxicity studies in mice; type: in vivo
Procedure: Toxicity Studies in Mice. […] Female BALB/c mice were used and monitored daily for lethargy, cleanliness and morbidity. At the time of death, necropsies were performed and the toxic effects of WHI-P131 administration were assessed. For histopathologic studies, tissues were fixed in 10% neutral buffered formalin, dehydrated, and embedded in paraffin by routine methods. Glass slides with affixed 6 micron tissue sections were prepared and stained with Hemotoxylin and Eosin (H&E). Female BALB/c mice were administered an i.p. bolus injection of WHI-P131 in 0.2 ml PBS supplemented with 10% DMSO, or 0.2 ml PBS supplemented with 10% DMSO alone (control mice). No sedation or anesthesia was used throughout the treatment period. Mice were monitored daily for mortality for determination of the day 30 LD50 values. Mice surviving until the end of the 30 days monitoring were sacrificed and the tissues were immediately collected from randomly selected mice, and preserved in 10% neutral buffered formalin. Standard tissues collected for histologic evaluation included: bone, bone marrow, brain, cecum, heart, kidney, large intestine, liver, lung, lymph node, ovary, pancreas, skeletal muscle, skin, small intestine, spleen, stomach, thymus, thyroid gland, urinary bladder, and uterus (as available).

SYK = target: T3, SYK (Homo sapiens, UniProt P43405); assay: Immune complex kinase assay, SYK from Sf21 cells; type: biochemical; settings: concentrations as high as 350 μM
T3 construct: made in house; host or cells: Sf21 insect cells, baculovirus
Text: Immune Complex Kinase Assays.

T1 sequence (P07948 whole entry): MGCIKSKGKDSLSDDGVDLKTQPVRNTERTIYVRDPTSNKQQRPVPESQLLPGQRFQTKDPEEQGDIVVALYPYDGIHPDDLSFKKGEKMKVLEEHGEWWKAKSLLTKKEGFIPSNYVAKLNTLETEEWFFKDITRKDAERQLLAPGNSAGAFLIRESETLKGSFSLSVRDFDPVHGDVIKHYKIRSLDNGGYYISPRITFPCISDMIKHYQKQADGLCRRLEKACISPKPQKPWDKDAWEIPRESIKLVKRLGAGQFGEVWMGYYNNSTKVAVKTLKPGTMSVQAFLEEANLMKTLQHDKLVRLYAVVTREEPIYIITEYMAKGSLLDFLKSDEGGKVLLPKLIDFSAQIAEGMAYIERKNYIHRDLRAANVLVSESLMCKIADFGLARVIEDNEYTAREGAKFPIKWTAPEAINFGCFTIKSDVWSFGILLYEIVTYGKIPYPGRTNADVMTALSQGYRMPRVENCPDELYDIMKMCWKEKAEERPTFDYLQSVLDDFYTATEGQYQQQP

## COc1cc2ncnc(Nc3ccc(O)cc3)c2cc1OC [WHI-P131, 4-(4′-Hydroxylphenyl)-amino-6,7-dimethoxyquinazoline]
LYN
  effect on enzymatic activity of LYN: did not affect
Human JAK3
  IC50: 9.1 µM
BALB/c mice; i.p. single bolus 0.5 mg/kg to 250 mg/kg, 30 day observation
  toxicity: not toxic
BALB/c mice; i.p. single bolus, mice
  maximum tolerated dose (MTD): > 250 mg/kg
BALB/c mice; mice killed at 30 days
  histopathologic lesions in organs: No histopathologic lesions
BALB/c mice; tested dose levels, mice
  hematologic side effects (neutropenia, lymphopenia, anemia): no hematologic side effects
SYK
  effect on enzymatic activity of SYK: did not affect
